This passage reports inhibition results from ChEMBL document CHEMBL5370645, “Discovery, Characterization, and Bioactivity of the Achromonodins: Lasso Peptides Encoded by Achromobacter” (J Nat Prod, 2023).

This test deals with Escherichia coli. Put plainly: Inhibition of Escherichia coli RNA polymerase assessed as reduction in transcriptional capacity by abortive transcription initiation assay.

Active and inactive are the calls of the source. No cut-off for these calls is given here. Positions of bridges follow the written chain, without caps; N, C: chain ends. Residues, ends and D or L forms follow the SMILES beside them.

`CC[C@H](C)[C@@H]1NC(=O)[C@H](CO)NC(=O)CNC(=O)[C@H](CC(=O)O)NC(=O)CNC(=O)CNC(=O)CC[C@@H](C(=O)N[C@@H](Cc2ccc(O)cc2)C(=O)N[C@@H](Cc2ccccc2)C(=O)N[C@@H](CC(N)=O)C(=O)N[C@@H](CCCNC(=N)N)C(=O)N2CCC[C@H]2C(=O)N[C@@H](CCSC)C(=O)N[C@@H](Cc2c[nH]cn2)C(=O)N[C@H](C(=O)N[C@@H](Cc2c[nH]cn2)C(=O)N[C@@H](CC(=O)O)C(=O)N[C@@H](Cc2c[nH]c3ccccc23)C(=O)N[C@@H](CCC(N)=O)C(=O)N[C@H](C(=O)N[C@@H](CCSC)C(=O)N[C@@H](CC(=O)O)C(=O)N[C@@H](CO)C(=O)NCC(=O)N[C@@H](Cc2ccc(O)cc2)C(=O)N[C@@H](Cc2ccc(O)cc2)C(=O)NCC(=O)O)[C@@H](C)CC)[C@@H](C)CC)NC(=O)[C@H](C)NC1=O` (GGDGSIAEYFNRPMHIHDWQIMDSGYYG-OH; lactam N-8): the inhibition result is “Active”.
